According to patent publication US7897638B2, “Synthesis of nitrodibenzylfuran chromophore for photodeprotection of organic molecules” (Philadelphia Health & Education Corporation, priority 2005, dated 2011):
Where two headings read alike, the source gives them in different places.

What was measured:
[1] = widely used, commercially available caged compounds; cited from earlier work
[2] = known standard; cited from earlier work
Two-photon photolysis = type: physicochemical
Protocol: Two-photon photolysis (2PP) of a solution contains MNI-glutamate (1.4 mM) and NDBF-EGTA (0.1 mM), by raster scanning the solution (256 pulses, 4 ms each, 300 mW).

[3] = Quantum yield of photolysis by comparison with MNI-glutamate, HPLC; type: physicochemical; conditions: photolyzed at 350 nm, relative to MNI-glutamate; listed as NDBF Calcium
Description: Inventors measured the quantum yield of photolysis of NDBF-EGTA by comparison with a known standard, 4-methoxy-7-nitroindolinyl(MNI)-glutamate (Matsuzaki, et al., 1999). A solution containing NDBF-EGTA and MNI-glutamate was photolyzed at 350 nm, in order to determine the relative % photolysis of the two caged compounds. The concentrations of the two compounds were set so that their chromophores would absorb the same amount of light (MNI/NDBF ratio 3.7:1), and so that the total optical density was 0.4. Under these conditions the same number of excited states are created simultaneously for both cages, making determination of the quantum for NBDF-EGTA more reliable. As a control, both cages were photolyzed separately to check that there was no interference from simultaneous photolysis. Inosine was also included in the photolysis reaction mixture, as a photochemically inert standard. MNI-glutamate has a quantum yield of photolysis of 0.085. […] Saturating [Ca] had no effect on this value.

[4] = Photochemical properties of caged compounds (Table 1); type: physicochemical; conditions: for ε/M^−1 cm^−1 (extinction coefficient): NDBF chromophore; for ε · φ (efficiency of use of the incident light): product of extinction coefficient and quantum yield
Description: The extinction coefficient (ε) and the quantum yield (φ) are the two photochemical properties that define the efficiency of a chromophore. The former is an absolute value of a chromophore; the latter depends upon the exact nature of the photolyzed bond, as well as the chromophore itself. The four most widely used caged compounds (ATP, IP3, glutamate, Ca) with the ortho-nitrobenzyl chromophore have ε and φ in the range of 430-970 and 0.14-0.63. The product (ε·φ) for each caged compound defines the efficiency of use of the incident light.

Compound | Rate/s^−1 (rate of release) [1] [s⁻¹] | φ (quantum yield) [1] | quantum yield of photolysis [2] | 2-photon cross-section (Two-photon photolysis) | φ (quantum yield of photolysis) [3] | ε/M^−1 cm^−1 (extinction coefficient) [4] | Rate/s^−1 (rate of release) ([4]; NDBF-caged calcium) | ε · φ (efficiency of use of the incident light) [4]
COc1cc(COP(=O)(O)OP(=O)(O)OP(=O)(O)OCC2OC(n3cnc4c(N)ncnc43)C(O)C2O)c([N+](=O)[O-])cc1OC (centres unmarked) [DMNB ATP] | 18 | 0.07 |  |  |  |  |  | 
COc1cc(COP2(=O)OCC3OC(n4cnc5c(N)ncnc54)C(O)C3O2)c([N+](=O)[O-])cc1OC (centres unmarked) [DMNB cAMP] | 300 | 0.05 |  |  |  |  |  | 
COc1ccc([N+](=O)[O-])c2c1CCN2C(=O)CC[C@H](N)C(=O)O [MNI-glutamate, 4-methoxy-7-nitroindolinyl(MNI)-glutamate, reference compound] |  |  | 0.085 | 0.06 GM |  |  |  | 
NDBF-EGTA |  |  |  | 0.3-0.6 GM | 0.6 | 18,400 M^−1 cm^−1 | 25,000 s^−1 | 11,000
nitrodibenzylfuran [NDBF] |  |  |  | at least 0.3 GM |  | 18,400 M^−1 cm^−1 |  | above 10,000
